In one series the test system is rat. Put plainly: Rat forced swim test (antidepressant screening). In kind it is in vivo.
Series [1] has as its system patients undergoing diazepam-withdrawal. The conditions noted are these: human, in vivo; cited from earlier work.
The conditions of series [2]: in vivo, cited from earlier work.
For series [3] the following is noted: Johansson et al. 1971; cited from earlier work.
The conditions of series [4]: pharmacologic testing; cited from earlier work.
Series [5] relates to diazepam-withdrawn animals. The conditions noted are these: cited from earlier work.

These results are taken from patent US5431922A (Bristol-Myers Squibb Company, priority 1993, dated 1995).

As for `O=C1CC2(CCCC2)CC(=O)N1CCCCN1CCN(c2ncccn2)CC1` [Buspirone, 8-[4-[4-(2-pyrimidinyl)1-piperazinyl]butyl]-8-azaspiro(4,5)-decane-7,9-dione], the “activity in rat forced swim test” value in the series with rat (given intracerebrally) was “active”; in the series on rat (given systemically), “inactive”. Also, the “treatment of patients undergoing diazepam-withdrawal” value in series [1] is reported as “failed to adequately treat patients undergoing diazepam-withdrawal”. Further, in series [2] (human), the biological half-life is on record as 2-11 hours.

On to `C=CCc1ccccc1OCC(O)CNC(C)C` (stereo not shown) [alprenolol], for which the “metabolism in controlled/extended release form vs conventional tablets (in words)” value in series [3] is “more complete when it was administered in a controlled/extended release form than in conventional tablets”.

For the molecule `c1cnc(N2CCNCC2)nc1` [Example 1-PP, 1-(2-pyrimidinyl)piperazine], in the series with rat (systemic administration of 1-PP), the “blockade of activity of intracerebral buspirone in forced swim test” value is given as “blocked”. Besides, in series [4], the “anxiolytic potency relative to buspirone” value is on record as 20-25%. For the same molecule, in series [5] (diazepam-naive subjects), the “effect on social interaction” value was “had not shown any effect”. The “effect in social interaction paradigm” value in series [5] (diazepam-withdrawn animals) is reported as “anxiogenic effect”. Moreover, the “elimination (in words)” value in series [2] is “much slower elimination”.
